Assay results from patent publication US11046716B2, “Beta-lactamase inhibitors” (priority 2015, dated 2021).
Read-outs that look alike come from different tables or passages of the source.

Tests used:
SHV-5 = molecular target: T1, SHV-5 (Klebsiella pneumoniae, UniProt P0A3M1); assay: β-lactamase enzyme inhibition assay, SHV-5 (cefotaxime substrate); type: biochemical
T1 construct: made in house; host or cells: E. coli BL21(DE3)
Summary of the method: (§1)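 Read-out is the rate of β-lactam ring hydrolysis monitored by absorbance: 300 nm for imipenem with KPC-2 and 260 nm for cefotaxime with SHV-5. Recombinant native enzymes were first incubated with compound at 37 °C for 15 min. The IC50 is the inhibitor concentration that halves the initial hydrolysis rate.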

KPC-2 = molecular target: T2, KPC-2 (Klebsiella pneumoniae, UniProt Q9F663); assay: β-lactamase enzyme inhibition assay, KPC-2 (imipenem substrate); type: biochemical
T2 construct: made in house; host or cells: E. coli BL21(DE3)
Summary of the method: as §1

VIM-2 = molecular target: T3, VIM-2 (Escherichia coli, UniProt Q5U7L7); assay: β-lactamase enzyme inhibition assay, VIM-2 (nitrocefin substrate); type: biochemical
T3 construct: made in house; host or cells: E. coli BL21(DE3)
Summary of the method: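 Purified VIM-2 preincubated with inhibitor for 15 min at 37° C, then nitrocefin (100 μM final) added and absorbance at 486 nm followed for 10 min. Maximum hydrolysis rates compared with inhibitor-free controls; IC50 fitted from percent inhibition across inhibitor concentrations.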

AmpC = molecular target: T4, AmpC (Enterobacter cloacae, UniProt P05364); assay: β-lactamase enzyme inhibition assay, p99 AmpC (nitrocefin substrate); type: biochemical
T4 construct: made in house; host or cells: E. coli BL21(DE3)
Summary of the method: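 Read-out is the rate of β-lactam ring hydrolysis monitored by absorbance. Recombinant native enzymes were first incubated with compound at 37 °C for 15 min. The IC50 is the inhibitor concentration that halves the initial hydrolysis rate.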

OXA-48 = OXA-48 (UniProt Q6XEC0); assay: β-lactamase enzyme inhibition assay, Class D oxacillinase; type: biochemical; settings: read-out: OXA-48
[1] = system: E. coli expressing the Class A Extended Spectrum Beta-Lactamase (ESBL) CTX-M-15; assay: Broth microdilution MIC assay with ceftazidime, E. coli CTX-M-15; type: cell-based; settings: Fixed CAZ (ceftazidime) 4 μg/mL; E. coli ESBL4 CTX-M-15
Summary of the method: (§2)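 Test compounds in 2-fold dilutions (16 to 0.125 μg/mL final) in CAMHB were combined with a β-lactam at a static 4 μg/ml final. Plates were inoculated per CLSI broth microdilution with the β-lactamase-producing strain (pre-grown 3-5 h) and incubated 16-20 h at 37° C. MIC of test compound was read visually.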

[2] = system: E. cloacae expressing the Class C P99; assay: Broth microdilution MIC assay with ceftazidime, E. cloacae P99; type: cell-based; settings: Fixed CAZ (ceftazidime) 4 μg/mL; E. cl. 144200 p99 AmpC
Summary of the method: as §2

[3] = system: K. pneumoniae expressing the Class A carbapenemase KPC-2; assay: Broth microdilution MIC assay with meropenem, K. pneumoniae KPC-2; type: cell-based; settings: Fixed Mero (meropenem) 4 μg/mL; K. p. 156319 KPC-3
Summary of the method: as §2

[4] = system: P. aeruginosa expressing the Class B carbapenemase VIM-2; assay: Broth microdilution MIC assay with meropenem, P. aeruginosa VIM-2; type: cell-based; settings: Fixed Mero (meropenem) 4 μg/mL; P. aerug. 2775 VIM-2
Summary of the method: as §2

[5] = system: K. pneumoniae expressing the class A carbapenemase KPC-2 and the class B carbapenemase VIM-4; assay: Broth microdilution MIC assay with meropenem, K. pneumoniae KPC-2 and VIM-4; type: cell-based; settings: Fixed Mero (meropenem) 4 μg/mL; K. p. A-1797 KPC-2 VIM-4
Summary of the method: as §2

[6] = system: K. pneumoniae producing the Class D carbapenemase OXA-48; assay: Broth microdilution MIC assay with meropenem, K. pneumoniae OXA-48; type: cell-based; settings: Fixed Mero (meropenem) 4 μg/mL; K. p. 11978 OXA-48
Summary of the method: as §2

[7] = Class A, imipenem substrate, 300 nm, read-out: KPC-2
[8] = Class B, nitrocefin substrate, 486 nm, read-out: VIM-2

T2 sequence (Q9F663 25-293, looked up): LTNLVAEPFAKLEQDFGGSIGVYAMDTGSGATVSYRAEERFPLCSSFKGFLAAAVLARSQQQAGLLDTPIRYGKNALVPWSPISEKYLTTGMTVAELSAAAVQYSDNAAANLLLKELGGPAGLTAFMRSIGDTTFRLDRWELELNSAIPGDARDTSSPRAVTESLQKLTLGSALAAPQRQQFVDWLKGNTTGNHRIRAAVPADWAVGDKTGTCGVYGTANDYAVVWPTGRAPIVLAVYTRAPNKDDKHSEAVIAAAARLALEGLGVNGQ
T4 sequence (P05364 21-381): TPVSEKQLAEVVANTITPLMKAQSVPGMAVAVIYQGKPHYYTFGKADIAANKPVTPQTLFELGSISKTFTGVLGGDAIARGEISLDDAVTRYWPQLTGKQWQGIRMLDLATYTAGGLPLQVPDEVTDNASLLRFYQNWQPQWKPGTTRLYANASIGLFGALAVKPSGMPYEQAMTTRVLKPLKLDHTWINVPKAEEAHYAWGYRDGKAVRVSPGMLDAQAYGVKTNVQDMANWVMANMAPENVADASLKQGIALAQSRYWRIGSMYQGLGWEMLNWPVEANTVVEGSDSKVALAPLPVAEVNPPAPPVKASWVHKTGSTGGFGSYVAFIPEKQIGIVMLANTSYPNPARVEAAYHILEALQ
T1 sequence (P0A3M1 22-286): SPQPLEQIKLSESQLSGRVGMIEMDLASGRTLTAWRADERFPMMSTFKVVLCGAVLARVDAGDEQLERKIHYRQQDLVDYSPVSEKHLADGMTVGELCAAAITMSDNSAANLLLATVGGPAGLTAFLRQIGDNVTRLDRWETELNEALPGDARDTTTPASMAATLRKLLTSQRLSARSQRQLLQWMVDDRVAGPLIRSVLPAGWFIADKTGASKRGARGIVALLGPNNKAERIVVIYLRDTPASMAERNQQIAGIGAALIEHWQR

| SMILES | IC50 (SHV-5) [nM] | IC50 (KPC-2) [nM] | IC50 (VIM-2) [nM] | IC50 (AmpC) [nM] | IC50 (OXA-48) [nM] | MIC (μg/mL) of Exemplary Compounds in presence of fixed β-lactams: E. coli ESBL4 CTX-M-15 [1] | MIC (μg/mL) of Exemplary Compounds in presence of fixed β-lactams: E. cl. 144200 p99 AmpC [2] | MIC (μg/mL) of Exemplary Compounds in presence of fixed β-lactams: K. p. 156319 KPC-3 [3] | MIC (μg/mL) of Exemplary Compounds in presence of fixed β-lactams: P. aerug. 2775 VIM-2 [4] | MIC (μg/mL) of Exemplary Compounds in presence of fixed β-lactams: K. p. A-1797 KPC-2 VIM-4 [5] | MIC (μg/mL) of Exemplary Compounds in presence of fixed β-lactams: K. p. 11978 OXA-48 [6] | IC50 (KPC-2; [7]) [nM] | IC50 (VIM-2; [8]) [nM] |
| --- | --- | --- | --- | --- | --- | --- | --- | --- | --- | --- | --- | --- | --- |
| NCCn1cc(Cn2nnnc2CC(=O)N[C@H]2Cc3cccc(C(=O)O)c3OB2O)nn1 [Example 123, (R)-3-(2-(1-((1-(2-aminoethyl)-1H-1,2,3-triazol-4-yl)methyl)-1H-tetrazol-5-yl)acetamido)-2-hydroxy-3,4-dihydro-2H-benzo[e][1,2]oxaborinine-8-carboxylic acid] | < 100 | 100 to 1000 | 1000 to 10000 | < 100 | 100 to 1000 | C (C represents an MIC of <1 μg/mL) | C (C represents an MIC of <1 μg/mL) | C (C represents an MIC of <1 μg/mL) | A (A represents an MIC>16 μg/mL) | B (B represents an MIC between 1 and 16 μg/mL inclusive) | B (B represents an MIC between 1 and 16 μg/mL inclusive) | – | – |
| NCCn1cc(Cn2nnc(CC(=O)N[C@H]3Cc4cccc(C(=O)O)c4OB3O)n2)nn1 [Example 124, (R)-3-(2-(2-((1-(2-aminoethyl)-1H-1,2,3-triazol-4-yl)methyl)-2H-tetrazol-5-yl)acetamido)-2-hydroxy-3,4-dihydro-2H-benzo[e][1,2]oxaborinine-8-carboxylic acid] | < 100 | – | – | < 100 | 100 to 1000 | C (C represents an MIC of <1 μg/mL) | C (C represents an MIC of <1 μg/mL) | B (B represents an MIC between 1 and 16 μg/mL inclusive) | A (A represents an MIC>16 μg/mL) | B (B represents an MIC between 1 and 16 μg/mL inclusive) | B (B represents an MIC between 1 and 16 μg/mL inclusive) | < 100 | 1000 to 10000 |
| NCc1ncn(CC(=O)N[C@H]2Cc3cccc(C(=O)O)c3OB2O)n1 [Example 125] | 100 to 1000 | – | – | < 100 | 1000 to 10000 | C (C represents an MIC of <1 μg/mL) | C (C represents an MIC of <1 μg/mL) | C (C represents an MIC of <1 μg/mL) | C (C represents an MIC of <1 μg/mL) | C (C represents an MIC of <1 μg/mL) | B (B represents an MIC between 1 and 16 μg/mL inclusive) | < 100 | < 100 |
